From US11352368B2, “Salt of fused ring pyrimidine compound, crystal form thereof and preparation method therefor and use thereof” (GUANGZHOU MAXINOVEL PHARMACEUTICALS CO., LTD., priority 2018, dated 2022)

What was measured:
[1] = Solubility test of the salts in pure water (Example 6); type: physicochemical; settings: room temperature, balancing about 20 hours, HPLC
Method: 2.0 mg of sample was precisely weighed into a liquid phase vial, 1.0 mL of purified water was added, the vial was subjected to ultrasonic treatment for about 30 seconds to disperse the samples evenly, then the vial was placed on a Labquaker rotator, and slowly rotated at room temperature for balancing. After balancing for about 20 hours, each vial was removed, and the solution was filtered with 0.45 μm nylon filter membrane. The filtrate was diluted by DMSO or not diluted and then detected by HPLC. At the same time, two parts of fused ring pyrimidine compounds were weighed and dissolved in DMSO to make standard solutions with concentration of 250 μg/mL and 500 μg/mL, respectively. The standard solutions were subjected to the HPLC detection. The sample concentration vs the peak area of HPLC principal component was used for make a standard curve, and the solubility of each sample in pure water was calculated by a external standard method.

[2] = Solubility test of crystal form A and crystal form B in a medium (Example 12); type: physicochemical; settings: for Solubility (calculated by free base of the fused ring pyrimidine compound): in mg/mL (unit assumed)
From the text: Example 12 Solubility Test of the Crystal Form A of the Fumarate of Fused Ring Pyrimidine Compound as Shown in Formula 2 and the Crystal Form B of the Adipate of Fused Ring Pyrimidine Compound as Shown in Formula 3 in a Medium

[3] = Stability test (total impurities, 20 days); type: physicochemical
Method: The crystal form A of the fumarate of fused ring pyrimidine compound as shown in formula 2, the crystal form B of the adipate of fused ring pyrimidine compound as shown in formula 3 and the fused ring pyrimidine compound as shown in formula 1 were subjected to tests at a high temperature of 60° C., 25° C./60% RH, 40° C./75% RH and highlight irradiation (4500 lx±500 lx), the test time was 20 days, the sample bottles were placed under different test conditions, and samples were taken at 0 and 20 days to detect the total amount of impurities, and the test results were shown in Table 8 below.

[4] = Pharmacokinetic experiment, single intragastric dose in rats; type: in vivo, SD rats; settings: single dose 10 mg/kg, 0.5% MC and 0.5% Tween80 in water
Method: 1) Preparation of animals 9 healthy male SD rats, each with a body weight of 220-230 g, were taken, fed with standard formulated granulated feed for rats at fixed times every day, and fasted for 12 hours before the experiment, and feeding was resumed after 4 hours of administration. Rats were free to drink water before, after and during the experiment. 9 rats were randomly divided into 3 groups.
2) Formulation of drugs: The fused ring pyrimidine compound as shown in formula 1, the crystal form A of the fumarate of fused ring pyrimidine compound as shown in formula 2 and the crystal form B of the adipate of fused ring pyrimidine compound as shown in formula 3 were accurately weighed, and were formulated into a 1 mg/mL solution in water (Wahaha/111830) with 0.5% MC (Fluka/BCBK3534K) and 0.5% Tween80 (TCl/V4FSC), respectively.
3) Intragastric administration with single dose (10 mg/kg): in the first group, rats were intragastrically administered with a solution of the fused ring pyrimidine compound as shown in formula 1, in the second group, rats were intragastrically administered with a solution of the crystal form A of the fumarate of fused ring pyrimidine compound as shown in formula 2, and in the third group, rats were intragastrically administered with a solution of the crystal form B of the adipate of fused ring pyrimidine compound as shown in formula 3.
4) Collection of blood samples: About 150 μL of blood was taken from the fundus venous plexus before administration and 0.083, 0.25, 0.5, 1, 2, 4, 8 and 24 hours after administration from each rat in the three groups, and anticoagulated with K2EDTA, plasma was separated by centrifugation and the supernatant was collected for LC-MS analysis.

JAK = settings: cited from earlier work
FGFR = settings: cited from earlier work
FLT3 = target: T1, FLT3 (Homo sapiens, UniProt P36888); settings: cited from earlier work
T1 sequence (P36888 27-993): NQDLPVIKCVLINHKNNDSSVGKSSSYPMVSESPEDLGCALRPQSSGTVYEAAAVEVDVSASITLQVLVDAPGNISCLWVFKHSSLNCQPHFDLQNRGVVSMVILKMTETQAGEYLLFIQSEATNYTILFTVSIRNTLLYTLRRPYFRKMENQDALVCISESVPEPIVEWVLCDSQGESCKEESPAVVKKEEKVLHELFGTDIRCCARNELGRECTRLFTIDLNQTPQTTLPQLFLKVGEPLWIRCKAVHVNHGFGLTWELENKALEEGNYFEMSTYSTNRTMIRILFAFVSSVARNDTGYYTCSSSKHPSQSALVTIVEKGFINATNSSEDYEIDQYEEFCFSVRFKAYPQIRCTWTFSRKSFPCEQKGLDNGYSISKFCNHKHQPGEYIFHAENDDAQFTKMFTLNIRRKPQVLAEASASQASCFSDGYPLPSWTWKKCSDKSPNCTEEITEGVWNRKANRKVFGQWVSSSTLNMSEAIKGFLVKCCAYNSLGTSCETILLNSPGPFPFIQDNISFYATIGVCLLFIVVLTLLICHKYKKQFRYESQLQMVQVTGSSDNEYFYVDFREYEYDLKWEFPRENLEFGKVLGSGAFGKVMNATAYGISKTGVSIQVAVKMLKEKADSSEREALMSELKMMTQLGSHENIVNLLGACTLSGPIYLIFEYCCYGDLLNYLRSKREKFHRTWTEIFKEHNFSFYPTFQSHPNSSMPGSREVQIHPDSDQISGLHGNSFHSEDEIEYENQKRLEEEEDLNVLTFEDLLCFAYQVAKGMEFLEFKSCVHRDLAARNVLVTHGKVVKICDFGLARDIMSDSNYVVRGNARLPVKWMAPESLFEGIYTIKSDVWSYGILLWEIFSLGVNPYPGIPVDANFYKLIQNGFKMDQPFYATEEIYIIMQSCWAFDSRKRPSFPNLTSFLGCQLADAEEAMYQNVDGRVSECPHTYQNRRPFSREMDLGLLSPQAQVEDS

Src kinase = settings: cited from earlier work
[5] = medium intestinal fluid in simulated fed state (FeSSIF)
[6] = medium pH 4 (50 mM phosphate buffer)
[7] = medium pH 6 (50 mM phosphate buffer)

saturated solubility [1]: <1 µg/mL
pH value of sample solution for solubility ([2]; medium Purified water): 8.29
Solubility (calculated by free base of the fused ring pyrimidine compound) ([2]; medium Purified water): <0.001
pH value of sample solution for solubility [2, 5]: 5.27
Solubility (calculated by free base of the fused ring pyrimidine compound) [2, 5]: 1.469
pH value of sample solution for solubility [2, 6]: 5.67
Solubility (calculated by free base of the fused ring pyrimidine compound) [2, 6]: 0.054
pH value of sample solution for solubility [2, 7]: 6.29
Solubility (calculated by free base of the fused ring pyrimidine compound) [2, 7]: 0.025
Impurity content ([3]; Day 0): 1.44%
Impurity content ([3]; Day 20, 25° C/60% RH): 1.46%
Impurity content ([3]; Day 20, 40° C/75% RH): 1.49%
Impurity content ([3]; Day 20, 60° C): 1.44%
Impurity content ([3]; Day 20, Light (4500 lx±500 lx)): 2.06%
chemical stability in the condition of high temperature and high humidity ([3]; high temperature and high humidity, 20 days): good chemical stability
Blood drug concentration (AUC) [4]: 57.7 ng·h/mL
SMILES: COc1cc(F)ccc1-c1c(C)sc2cnc(Nc3cnn(C4CCNCC4)c3)nc12 [The fused ring pyrimidine compound as shown in formula 1] [N-[7-(4-fluoro-2-methoxyphenyl)-6-methylthieno[3,2-d]pyrimidin-2-yl]-1-(piperidin-4-yl)-1H-pyrazol-4-amine]
inhibitory effect on JAK (JAK): good inhibitory effect
inhibitory effect on FGFR (FGFR): good inhibitory effect
inhibitory effect on FLT3 (FLT3): good inhibitory effect
inhibitory effect on Src kinase (Src kinase): good inhibitory effect
